# Measured values published in US6878522B2, “Methods for the identification of compounds useful for the treatment of disease states mediated by prostaglandin D2” (priority 2000, dated 2005).
# Assays:
# [1] = molecular target: T1, CRTH2 (Homo sapiens, UniProt Q9Y5Y4); experiment: [Ca2+]i mobilization assay in 300-19 cells expressing CRTH2; assay type: cell-based; details: CRTH2 stable cell line (300-19 transfectants)
# T1 construct: prolactin (prolac) signal peptide (N); expressed in transfected cells; host or cells: 300-19 cells (transformed murine pre-B lymphocytes)
# T1 sequence (Q9Y5Y4 1-395): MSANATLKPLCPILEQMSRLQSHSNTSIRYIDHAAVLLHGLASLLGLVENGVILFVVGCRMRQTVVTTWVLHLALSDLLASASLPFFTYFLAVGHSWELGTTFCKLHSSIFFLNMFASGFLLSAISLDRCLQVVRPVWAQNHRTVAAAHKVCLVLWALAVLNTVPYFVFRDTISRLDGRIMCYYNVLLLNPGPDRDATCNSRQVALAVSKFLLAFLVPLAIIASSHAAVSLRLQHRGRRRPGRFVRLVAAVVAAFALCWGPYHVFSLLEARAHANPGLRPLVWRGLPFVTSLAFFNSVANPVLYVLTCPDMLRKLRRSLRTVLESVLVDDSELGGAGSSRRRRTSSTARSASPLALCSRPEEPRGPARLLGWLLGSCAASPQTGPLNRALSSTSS
# Procedure: The ratio of fluorescence produced by the calcium-bound dye to that produce by the unbound dye is used to estimate the intracellular calcium concentration. In one embodiment, for example, the following method can be used. Cells that express CRTH2 are collected, and resuspended in fresh media at ˜2×10^5/ml the day before performing the calcium flux assay. Cells are incubated at 37° C. for not longer than 20-30 minutes, and then spun down and resuspended in 50 ml fresh PTI buffer (Hank's Buffer, pH 7.2-7.4; 10 mM Hepes; 1.6 mM CaCl2) containing Indo-1 AM, pre-warmed to 37° C., at a concentration of 10 million per ml. Cells are excited, and fluorescence is measured using a fluorimeter (Photon Technology Corporation, International). After the readout has stabilized, the time axis is reset, and PGD2 is added at a specific time point (e.g., 20 seconds). After response, the following reagents are added to the cuvette, to release and chelate total calcium, in the following order: 20 μl of 18% Triton X-100, 20 μl of 3M Tris, pH 8.5, and 20 μl of 0.5 M EGTA, pH 8.5. The experiment is repeated in the presence and the absence of a test compound.
# Using 300-19 cells (transformed pre-B lymphocytes) expressing CRTH2, a number of mast cell and non-mast cell-derived mediators were screened in a [Ca^2+]i mobilization assay. […]
# [2] = molecular target: T1, CRTH2; experiment: [3H]-PGD2 binding to 300-19 cells transfected with CRTH2
# Procedure: In a preferred embodiment, a binding assay can be performed as follows: • (a) 300-19 cells (see below) that transiently express CRTH2 are pelleted, and washed twice at room temperature with assay buffer (Hank's balanced saline, including Ca^+2 and Mg^+2, and supplemented with HEPES and sodium bicarbonate). The cells are resuspended at a concentration of 2×10^7 cells/ml. […] After the addition of 50 μl scintillation fluid, the plate is counted in a scintillation counter (1 min per well). […]
# To directly determine the binding affinity of CRTH2 for PGD2, the following binding assay was used. […] After the addition of 50 μl scintillation fluid (Packard Microscint 0), the plate was counted in a Packard Topcount scintillation counter (1 min per well). […]
# The receptor concentration was calculated to be 79,554 sites/cell.
# [3] = molecular target: T1, CRTH2; experiment: Competition with 3H-PGD2 binding at the CRTH2 receptor (Examples 6-9); details: control, cold PGD2, 8 trials
# Procedure: To directly determine the binding affinity of CRTH2 for PGD2, the following binding assay was used. Transfected and parental 300-19 cells were washed twice at room temperature with assay buffer, and resuspended at a concentration of 2×10^7 cells/ml. Using a 96-well U-bottom polypropylene plate (Costar, Corning Inc., Acton, Mass.), the assay was set up as follows: 50 μl of vehicle (0.3% DMSO in assay buffer, total wells) or of […] cold PGD2 (NS wells); 50 μl cells (2×10^7 cells/ml for 10^6 cells per well); 50 μl 6 nM [3H]-PGD2. The plate was allowed to incubate for 20 min at RT before centrifugation (2800 rpm, Sorval RT6000, 5 min, 4° C.). The plate was harvested (Packard Unifilter plate GF/C, previously soaked in 3% PEI for at least 1 hr) with cold assay buffer using a Packard Filtermate Cell Harvester (6×150 μl buffer wash per well). The filterplate was dried overnight. After the addition of 50 μl scintillation fluid (Packard Microscint 0), the plate was counted in a Packard Topcount scintillation counter (1 min per well). […] The solutions of labeled PGD2 and unlabeled “cold” PGD2 were prepared as follows: 10 μl of [^3H]-PGD2 (Amersham lot # TRK734 162 Ci/mmol, 0.1 Ci/ml in methanol: water: acetonitrile (3:2:1), 617 nM) per ml assay buffer was used to prepare a solution of [^3H]-PGD2 at a concentration of 6 nM (50 μl/well for final conc. of 2 nM); cold PGD2 (Biomol #PG-005, lot # P4653) was dissolved in DMSO for a stock of 10 mM (stored at −20° C.). The 10 mM stock was diluted 3:1000 to obtain a final concentration of […] (50 μl/well for final conc. of […]). Assay buffer: Hank's balanced saline supplemented with HEPES and sodium bicarbonate: 100 ml/L of 10× Hank's Balanced saline (with Ca^+2, Mg^+2); 10 ml/L of 1M HEPES; 4.7 ml/L of 7.5% Sodium Bicarbonate.
# In the assay, the capacity of each D-ring compound to compete with binding of ^3H-PGD2 was measured at both the CRTH2 and DP receptors, and an IC50 value (in μM) was determined. […] The binding assay procedure of Example 1 was used. Preferably, the ratio of IC50 at CRTH2 to IC50 at DP is less than about twenty, and more preferably is […].
# [4] = molecular target: T2, TP receptor (Homo sapiens, UniProt P21731); details: cited from earlier work
# T2 sequence (P21731 1-343): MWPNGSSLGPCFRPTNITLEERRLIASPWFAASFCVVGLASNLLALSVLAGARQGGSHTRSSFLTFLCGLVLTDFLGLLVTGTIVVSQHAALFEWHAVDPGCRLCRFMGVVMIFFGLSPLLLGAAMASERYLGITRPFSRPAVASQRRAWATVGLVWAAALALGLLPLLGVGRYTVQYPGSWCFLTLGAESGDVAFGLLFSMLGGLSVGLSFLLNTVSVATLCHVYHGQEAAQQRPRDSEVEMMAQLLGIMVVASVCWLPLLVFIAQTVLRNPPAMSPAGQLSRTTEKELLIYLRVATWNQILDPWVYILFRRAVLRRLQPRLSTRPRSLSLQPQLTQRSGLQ
smiles,measurement,setting,value
"CCCCC[C@H](O)/C=C/[C@H]1C(=O)C[C@H](O)[C@@H]1C/C=C\CCCC(=O)O [PGD2, prostaglandin D2]",EC50,[1],15 nM
same,IC50,"[2]; 300-19 CRTH2 transfectants, 2 nM [3H]-PGD2, room temperature",18 nM
same,Kd,"[2]; CRTH2 transfectant, read-out: Kd of [3H]-PGD2 binding (Scatchard plot)",18.1 nM
same,IC50,[3],10.7 nM
same,Ki,[4],75000 nM
